Drawing on US8304422B2, “Compositions and methods for inhibition of the JAK pathway” (Rigel Pharmaceuticals, Inc., priority 2007, dated 2012), this text covers IC50 for 32 compounds.

The assay deals with BaF3 V617F cells; UKE-1. As to the kind of experiment: Proliferation Assay (Cell Titer-Glo; Example 7). The format is cell-based. The note with it: proliferation 72 hours, inhibit JAK2 activity, cell line (BaF3 V617F or UKE-1) not stated. Here is the method: BaF3 V617F cells are maintained and plated in RPMI with 10% FBS. Plating density for these cells is 1×10^5 cells/mL.
UKE-1 are maintained and plated in Iscove's DMEM containing 10% FBS, 10% equine serum, 1% penicillin/streptomycin and 1 uM hydrocortisone. Plating density for these cells is 0.4×10^6 cells/mL
The cells were resuspended in a corresponding medium at a required cell density (see above). 100μ of cell suspension was added to each well of a flat bottom 96 well white plate. The compound was serially diluted in DMSO from 5 mM in 3-fold dilutions, and then diluted 1:250 in the RPMI 1640 medium containing 5% FBS and pen/strep. 100 μL of resulting 2× compound solution was added per well in duplicate and the cells were allowed to proliferate for 72 hours at 37° C.
Proliferation was measured using Cell Titer-Glo. The substrate was thawed and allowed to come to room temperature. After removal of top 100 μL of medium from each well, 100 μL of the premixed Cell Titer-Glo reagent was added to each well. The plates were mixed on an orbital shaker for three minutes to induce lysis and incubated at ambient temperature for an additional five minutes to allow the signal to equilibrate. The Luminescence was read on the Wallac Plate Reader.
The results of the ability of the compounds of the invention to inhibit JAK2 activity, when tested in the above assay, are shown in the following Table XI wherein the level of activity (i.e., the IC50) for each compound is indicated in Table XI. The compound numbers in Table XI refers to the compounds disclosed herein as being prepared by the methods disclosed herein: […]
(In general: ATP-based viability assays read luminescence as a measure of living cells.)

In general, IC50 refers to the concentration that gives 50% inhibition. The low end stands for higher potency, the high end for lower potency. In turn, `Cc1cnc(Nc2cc(C)c(OC(C)C)c(C)c2)nc1Nc1ccc(CNS(=O)(=O)NC2CC2)cc1` [II-164, N4-[4-((N-Cyclopropylamino)sulfonylamino)methylphenyl]-N2-[3,5-dimethyl-4-(1-methyl)ethoxyphenyl]-5-methyl-2,4-pyrimidinediamine] gave an IC50 of 0.0948 µM.

`CCNS(=O)(=O)NCc1ccc(Nc2nc(Nc3ccc(N4CCN(C)CC4)cc3)ncc2C)cc1` [II-122, N4-[(4-(Ethylamino)sulfonylamino)methylphenyl]-5-methyl-N2-[4-(4-methyl-1-piperazinyl)phenyl]-2,4-pyrimidinediamine]: the midpoint of inhibition, the IC50, lay at 0.276 µM. With `CCS(=O)(=O)N1CCc2c(cccc2Nc2nc(Nc3cc(OC)c(OC)c(OC)c3)ncc2Cl)C1` [VI-5, 5-Chloro-N4-[1,2,3,4-tetrahydro-2-(ethylsulfonyl)-5-isoquinolinyl]-N2-(3,4,5-trimethoxyphenyl)-2,4-pyrimidinediamine], the IC50 came to 0.798 µM. Then `CCN1CCN(c2ccc(Nc3ncc(C)c(Nc4ccc(CCNS(=O)(=O)C5CC5)cc4)n3)c(C(F)(F)F)c2)CC1` [II-74], with 1.49 µM; and `CCOc1c(C)cc(Nc2ncc(Cl)c(Nc3ccc(CNS(=O)(=O)C4CC4)cc3)n2)cc1C` [II-211, 5-Chloro-N4-[4-(N-cyclopropylsulfonylamino)methylphenyl]-N2-[3,5-dimethyl-4-ethoxyphenyl]-2,4-pyrimidinediamine], with 0.0394 µM; and `Cc1cnc(Nc2ccc(N3CCN(S(C)(=O)=O)CC3)cc2C(F)(F)F)nc1Nc1ccc(CCNS(=O)(=O)C2CC2)cc1` [II-72], with 18.3 µM. The figure for `COc1cc(Nc2ncc(C)c(Nc3ccc(CNS(=O)(=O)C4CC4)cc3)n2)cc(Cl)c1OC` [II-198, 5-Methyl-N4-[4-(N-cyclopropylsulfonylamino)methylphenyl]-N2-[3,4-dimethoxy-5-chlorophenyl]-2,4-pyrimidinediamine] is 0.116 µM; for `COc1cc(Nc2ncc(Cl)c(Nc3cccc(S(=O)(=O)NC(C)(C)C)c3)n2)cc(OC)c1OC` [I-15, 5-Chloro-N4-[3-(N-tert-butylsulfonyl)phenyl]-N2-[3,4,5-trimethoxyphenyl]-2,4-pyrimidinediamine] it is 0.225 µM. Then `CCc1cnc(Nc2ccc(N3CCN(CC)CC3)cc2)nc1Nc1ccc(CNS(=O)(=O)C2CC2)cc1` [II-89, N4-[4-(N-Cyclopropylsulfonylamino)methylphenyl]-5-ethyl-N2-[4-(4-ethyl-1-piperazinyl)phenyl]-2,4-pyrimidinediamine], with 0.674 µM; and `Cc1cnc(Nc2cc(C)c(OCCN3CCOCC3)c(C)c2)nc1Nc1cccc(S(=O)(=O)NC(C)(C)C)c1` [I-20], with 0.189 µM; and `Cc1cc(CNS(=O)(=O)C2CC2)ccc1Nc1nc(NC2=CC(C)C(C)(OCCN3CCOCC3)C=C2)ncc1C` (centres unmarked) [II-161, N2-[3,4-Dimethyl-4-(2-(4-morpholinyl)ethoxy)phenyl]-5-methyl-N4-[2-methyl-4-(N-cyclopropylsulfonylamino)methylphenyl]-2,4-pyrimidinediamine], with 0.149 µM. `COc1cc(Nc2ncc(Cl)c(Nc3ccc(CNS(=O)(=O)N(C)C)cc3)n2)cc(C)c1OC` [II-91, 5-Chloro-N2-(3,4-dimethoxy-5-methylphenyl)-N4-[(4-(dimethylamino)sulfonylamino)methylphenyl]-2,4-pyrimidinediamine]: the IC50 is 0.142 µM. For the compound `CCOc1cc(Nc2ncc(Cl)c(Nc3ccc(CNS(=O)(=O)C4CC4)cc3)n2)cc(OC)c1OC` [II-210, 5-Chloro-N4-[4-(N-cyclopropylsulfonylamino)methylphenyl]-N2-[3,4-dimethoxy-5-ethoxyphenyl]-2,4-pyrimidinediamine], it took 0.167 µM to reach half-maximal inhibition (IC50). The figure for `O=S(=O)(NCc1ccc(Nc2nc(Nc3ccc(N4CCN(C5CC6CCC5C6)CC4)cc3)ncc2Cl)cc1)C1CC1` (centres unmarked) [II-61, N-(4-(2-(4-(4-(bicyclo[2.2.1]heptan-2-yl)piperazin-1-yl)phenylamino)-5-chloropyrimidin-4-ylamino)benzyl)cyclopropanesulfonamide] is 5.97 µM; for `Cc1cnc(Nc2ccc(C3CCN(C)CC3)cc2)nc1Nc1ccc2c(c1)[C@H](NS(C)(=O)=O)CC2` [V-11, (1R)-5-Methyl-N2-[4-(1-methyl-4-piperidinyl)pheny]-N4-[1-(methylsulfonyl)aminoindan-6-yl]-2,4-pyrimidinediamine] it is 2.16 µM; for “5-Chloro-N4-[4-[N-cyclopropylsulfonyl)-N′-(3-(4-morpholine)propion-1-yl)amino]methylphenyl]-N2-(3,5-dimethyl-4-methoxyphenyl)-2,4-pyrimidinediamine [II-141]” it is 0.0739 µM.

Compound “5-Chloro-N2-[3,4-dimethyl-4-(2-(4-morpholinyl)ethoxy)phenyl]-N4-[4-((N-cyclopropylamino)sulfonylamino)methylphenyl]-2,4-pyrimidinediamine [II-170]” registered an IC50 of 0.0402 µM. The figure for `Cc1cc(Nc2ncc(C)c(Nc3ccc(CNS(=O)(=O)NC4CC4)cc3)n2)ccc1N1CCN(C)CC1` [II-172, N4-[4-((N-Cyclopropylamino)sulfonylamino)methylphenyl]-5-methyl-N2-[3-methyl-4-(4-methyl-1-piperazinyl)phenyl]-2,4-pyrimidinediamine] is 2.26 µM; for `CN1CCN(c2ccc(Nc3ncc(Cl)c(Nc4ccc(CCNS(=O)(=O)C5CC5)cc4)n3)cn2)CC1` [II-53, 5-Chloro-N4[4-(N-cyclopropylsulfonylamino)ethylphenyl]-N2-[4-(4-methylpiperazino)pyrido]-2,4-pyrimidinediamine] it is 1.98 µM; for `O=S(=O)(NCc1ccc(Nc2nc(Nc3cc(C4CC4)n[nH]3)ncc2Cl)cc1)C1CC1` [VIII-12, 5-Chloro-N4-[4-(N-cyclopropylsulfonylamino)methylphenyl]-N2-[5-cyclopropylpyrazol-3-yl)-2,4-pyrimidinediamine] it is 0.879 µM. Consider “5-Chloro-N2-[3-methyl-4-(methyl-1-piperazinyl)phenyl]-N4-[1,2,3,4-tetrahydro-2-(ethylsulfonyl)-5-isoquinolinyl]-2,4-pyrimidinediamine [VI-2]”, for which the IC50 was found to be 2.8 µM. For `Cc1cnc(Nc2ccc(C3=NCCN3)cc2)nc1Nc1ccc2c(c1)C(NS(=O)(=O)C1CC1)CC2` (racemic) [V-6, (+/−)-N4-[1-(Cyclopropylsulfonylamino)indan-6-yl]-N2-[4-(4,5-dihydro-1H-imidazol-2-yl)phenyl]-5-methyl-2,4-pyrimidinediamine], the IC50 stood at 1.12 µM. Regarding `Cc1cnc(Nc2cnccc2N2CCN(C)CC2)nc1Nc1ccc(CNS(=O)(=O)C2CC2)cc1` [II-215, 5-Methyl-N4-[4-(N-cyclopropylsulfonylamino)methylphenyl]-N2-[4-(N-methylpiperizin-4-yl)pyridine-3-yl]-2,4-pyrimidinediamine], the IC50 was 1.52 µM. Then “5-Chloro-N4-[4-(N-cyclopropylsulfonylamino)methylphenyl]-N2-[3,4-dimethyl-4-(2-(4-morpholinyl)ethoxy)phenyl]-2,4-pyrimidinediamine [II-160]”, with 0.0299 µM. As to `CCS(=O)(=O)N1CCc2c(cccc2Nc2nc(Nc3cc(C)c(OC)c(C)c3)ncc2Cl)C1` [VI-4, 5-Chloro-N2-(3,5-dimethyl-4-methoxyphenyl)N4-[1,2,3,4-tetrahydro-2-(ethylsulfonyl)-5-isoquinolinyl]-2,4-pyrimidinediamine], the IC50 turned out to be 1.21 µM. The figure for `Cc1cnc(Nc2ccc(N3CCN(C)CC3)cc2)nc1Nc1cccc(S(=O)(=O)N(C)C)c1` [I-14, N4-[(3-(1,1-Dimethylamino)sulfonyl)phenyl]-5-methyl-N2-[4-(4-methyl-1-piperazinyl)phenyl]-2,4-pyrimidinediamine] is 0.225 µM; for `CC1CN(CCOc2ccc(Nc3ncc(Cl)c(Nc4ccc(CCNS(=O)(=O)C5CC5)cc4)n3)cc2)CC(C)O1` (centres unmarked) [II-49] it is 0.339 µM.

`Cc1cnc(Nc2ccc(-c3ccccc3)cc2)nc1Nc1ccc(CCNS(=O)(=O)C2CC2)cc1` [II-75]: half-maximal inhibition (IC50) was put at 10.4 µM.

`Cc1cnc(Nc2ccc(N3CCN(C)CC3)cc2C(F)(F)F)nc1Nc1ccc(CCNS(=O)(=O)C2CC2)cc1` [II-70] returned an IC50 of 1.39 µM. `Cc1cc(CNS(=O)(=O)NC2CC2)ccc1Nc1nc(Nc2ccc(N3CCN(C)CC3)c(C)c2)ncc1Cl` [II-181, 5-Chloro-N4-[2-methyl-4-((N-cyclopropylamino)sulfonylamino)methylphenyl]-N2-[3-methyl-4-(4-methyl-1-piperazinyl)phenyl]-2,4-pyrimidinediamine] registered an IC50 of 4.33 µM. The figure for `CCNS(=O)(=O)NCc1cccc(Nc2nc(Nc3cc(C)c(OC)c(C)c3)ncc2F)c1` [II-137, N2-(3,5-Dimethyl-4-methoxyphenyl)-N4-[(3-(ethylamino)sulfonylamino)methylphenyl]-5-fluoro-2,4-pyrimidinediamine] is 0.541 µM; for `CN1CCN(c2ccc(Nc3ncc(Cl)c(Nc4ccc(CNS(N)(=O)=O)cc4)n3)cc2)CC1` [II-148, N4-[4-(Aminosulfonylamino)methylphenyl]-5-chloro-N2-[4-(4-methyl-1-piperazinyl)phenyl]-2,4-pyrimidinediamine] it is 1.32 µM.
